ChEMBL document CHEMBL1201862, “PubChem BioAssay data set” (2004)
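Test compounds were applied to cells in 96-well plates for 48 hours at 5 doses. GI50: concentration for 50% inhibition of growth.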 Calls of active or inactive are those of the source. Rule as the data show it: active = GI50 up to about 1.1 µM and inactive = higher.

Assays:
Test in all cases: NCI-60 cell line screen, 48 h
[1] = tested on: HOP-92
[2] = tested on: T47D
[3] = tested on: SNB-19
[4] = tested on: HOP-62
[5] = tested on: MDA-MB-231
[6] = tested on: NCI-H522
[7] = tested on: NCI/ADR-RES
[8] = tested on: UACC-62
[9] = tested on: TK-10
[10] = tested on: SF-539
[11] = tested on: MCF7
[12] = tested on: COLO 205
[13] = tested on: MOLT-4
[14] = tested on: Malme-3M
[15] = tested on: A549
[16] = tested on: HCT-116
[17] = tested on: 786-0
[18] = tested on: A498
[19] = tested on: LOX IMVI
[20] = tested on: OVCAR-4
[21] = tested on: OVCAR-8
[22] = tested on: SK-MEL-5
[23] = tested on: KM12
[24] = tested on: UACC-257
[25] = tested on: EKVX
[26] = tested on: SNB-75
[27] = tested on: NCI-H460
[28] = tested on: NCI-H226
[29] = tested on: SW-620
[30] = tested on: HT-29
[31] = tested on: SF-295
[32] = tested on: DU-145
[33] = tested on: ACHN
[34] = tested on: BT-549
[35] = tested on: Hs-578T
[36] = tested on: SN12C
[37] = tested on: HL-60
[38] = tested on: IGROV-1
[39] = tested on: SK-MEL-2
[40] = tested on: CCRF-CEM
[41] = tested on: SR
[42] = tested on: HCT-15
[43] = tested on: K562
[44] = tested on: CAKI-1
[45] = tested on: OVCAR-3
[46] = tested on: RPMI-8226
[47] = tested on: MDA-N
[48] = tested on: OVCAR-5
[49] = tested on: PC-3
[50] = tested on: UO-31
[51] = tested on: RXF 393
[52] = tested on: SK-OV-3
[53] = tested on: MDA-MB-435
[54] = tested on: U-251
[55] = tested on: SF-268
[56] = tested on: M14
[57] = tested on: SK-MEL-28
[58] = tested on: NCI-H23
[59] = tested on: HCC 2998

Measured: GI50

Cc1cc(Nc2ccc(/N=N/c3ccc(O)c4ncccc34)cc2)nc(C)n1
4.37 µM: [42]
inactive: [1] 9.75 µM | [2] 6.01 µM | [3] 8.53 µM | [4] 15.9 µM | [5] 24.9 µM | [6] 10.7 µM | [7] 6.28 µM | [8] 6.38 µM | [9] 17.9 µM | [10] 3.99 µM | [11] 11 µM | [12] 20.8 µM | [13] 3.93 µM | [14] 18.6 µM | [15] 9.82 µM | [16] 8.93 µM | [17] 12.6 µM | [18] 21.6 µM | [19] 6.52 µM | [20] 18 µM | [21] 6.61 µM | [22] 10.8 µM | [23] 12.4 µM | [24] 16.6 µM | [25] 34.8 µM | [26] 9.35 µM | [27] 6.93 µM | [28] 18.3 µM | [29] 13.5 µM | [30] 31.2 µM | [31] 18.6 µM | [32] 18.2 µM | [33] 8.22 µM | [34] 16.4 µM | [35] 7.03 µM | [36] 10.4 µM | [37] 3.97 µM | [38] 8.57 µM | [39] 13.8 µM | [40] 2.75 µM | [41] 6.34 µM | [43] 3.78 µM | [44] 25.7 µM | [45] 7.76 µM | [46] 5.61 µM | [47] 6.62 µM | [48] 35.2 µM | [49] 14.4 µM | [50] 11 µM | [51] 12.7 µM | [52] 23.9 µM | [53] 9.29 µM | [54] 8.13 µM | [55] 14.6 µM | [56] 12.6 µM | [57] 11.2 µM | [58] 7.24 µM

Nc1cc(N)c(/N=N/c2cccc3c(S(=O)(=O)O)cccc23)cc1/N=N/c1cc([N+](=O)[O-])ccc1O
22.1 µM: [42]
inactive: [1] 35.6 µM | [2] 38.8 µM | [3] 48.9 µM | [4] 29.9 µM | [5] 14.6 µM | [6] 17.5 µM | [7] 21.9 µM | [8] 22.3 µM | [9] 47 µM | [10] 38 µM | [11] 32.6 µM | [12] 38.5 µM | [13] 20.3 µM | [14] 17.3 µM | [15] 25.5 µM | [16] 32.7 µM | [17] 42.1 µM | [18] 27 µM | [19] 13.6 µM | [20] 18.4 µM | [21] 23.4 µM | [22] 17.6 µM | [23] 33.2 µM | [24] 26.3 µM | [25] > 100 µM | [26] 49.1 µM | [27] 29.1 µM | [29] 28.8 µM | [30] 43.8 µM | [31] 32.2 µM | [32] 30.3 µM | [33] 22.2 µM | [34] 31.6 µM | [35] 36.8 µM | [36] 32.3 µM | [38] 15.6 µM | [39] 22.4 µM | [41] 13.5 µM | [43] 38.7 µM | [44] 23.6 µM | [45] 9.08 µM | [46] 35.6 µM | [59] 23.2 µM | [47] 46.9 µM | [48] 23.3 µM | [49] 18.5 µM | [50] 19 µM | [51] 70.3 µM | [52] 59.7 µM | [53] 35.6 µM | [54] 13.7 µM | [55] 6.62 µM | [56] 26.1 µM | [58] 45 µM
